Source: patent US20240208907A1, “GPR52 MODULATORS AND METHODS OF USE” (Neurocrine Biosciences, Inc., priority 2021, published 2024)

Molecular target: T1, recombinant human GPR52 (Homo sapiens, UniProt Q9Y2T5)
T1 construct: expressed in transfected cells
Experiment: GPR52 activity: TR-FRET cAMP assay (LANCE Ultra cAMP Kit)
Assay type: cell-based
Settings: Flp-In-CHO cells stably expressing recombinant human GPR52; cAMP production, normalized to positive control
Experimental: TR-FRET cAMP assays were performed using commercially available assay kits (LANCE™ Ultra cAMP Kit). Controls and compounds were solubilized in DMSO using ½ log dilution to generate duplicate 10-point dose response curves in 384-well polypropylene compound plates. Sixty nanoliters of the diluted compounds were transferred into 384-well NBS assay plates and further diluted to 1× with the addition of 2000 cells per well. Flp-In™-CHO cells that stably express recombinant human GPR52.
Cells were harvested with cell stripper and resuspended in Stimulation Buffer (5 mM HEPES, 0.1% bovine serum albumin (BSA), 0.5 mM IBMX, pH 7.4). After thirty minutes incubation at room temperature, detection reagents were added to each well. Plates were then incubated for 30 minutes at room temperature. The LANCE™ Ultra cAMP assay uses time-resolved fluorescence resonance energy transfer (TR-FRET) to detect cAMP production; this signal was quantified using a Pherastar multi-mode plate reader.
Dose-response curves were generated from the fluorescence counts normalized to the positive control. E EC50 values were obtained using a nonlinear regression curve-fitting program.

T1 sequence (Q9Y2T5 whole entry): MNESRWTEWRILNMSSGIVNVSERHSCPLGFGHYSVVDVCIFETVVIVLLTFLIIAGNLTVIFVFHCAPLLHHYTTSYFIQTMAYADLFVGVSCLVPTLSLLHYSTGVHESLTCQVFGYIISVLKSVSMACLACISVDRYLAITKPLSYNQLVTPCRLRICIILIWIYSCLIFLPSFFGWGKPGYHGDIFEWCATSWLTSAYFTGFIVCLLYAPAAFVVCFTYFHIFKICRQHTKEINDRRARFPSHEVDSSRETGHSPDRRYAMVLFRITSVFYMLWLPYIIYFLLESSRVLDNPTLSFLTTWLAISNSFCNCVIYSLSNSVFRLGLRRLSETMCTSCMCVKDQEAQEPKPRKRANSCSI

Structure (SMILES) | EC50 [nM]
N#Cc1cc(Cc2ccnc(-c3ccc4c(c3)CCNC4=O)c2)ccc1F [Compound 42, 2-fluoro-5-{[2-(1-oxo-1,2,3,4-tetrahydroisoquinolin-6-yl)pyridin-4-yl]methyl}benzonitrile] | 101 to 1000
NC(=O)c1cccc(-c2cc(Cc3cc(F)cc(C(F)(F)F)c3)ccn2)c1 [Compound 17, 3-(4-{[3-fluoro-5-(trifluoromethyl)phenyl]methyl}pyridin-2-yl)benzamide] | 25 to 100
